In patent US10206394B2, “Herbicidal compounds” (Syngenta Participations AG, priority 2014, dated 2019):
Where two headings read alike, the source gives them in different places.

What was measured:
Test in all cases: Glasshouse assay for herbicidal activity (pre- and post-emergence), percentage phytotoxicity
Type in all cases: in vivo
[1] = tested on: Alopecurus myosuroides (ALOMY); details: Alopecurus myosuroides
In short: (§1)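 Percent injury was estimated by eye on a scale where 0% means no damage and 100% complete damage. Ratings came 15 DAA post-emergence and 20 DAA pre-emergence, with plants held under 16 h light and 65% humidity at 24/18 °C or 20/16 °C day/night.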

Avena fatua (AVEFA) = details: Avena fatua
In short: as §1

[2] = tested on: Echinochloa crus-galli (ECHCG); details: Echinochloa crus-galli
In short: as §1

Lolium perenne (LOLPE) = details: Lolium perenne
In short: as §1

[3] = post-emergence, 360 h, Rate 250 g/ha, post-emergence, assessed visually 15 DAA, 100%=total damage, 0%=no damage, read-out: Post-emergence herbicidal activity (percentage phytotoxicity) ALOMY POST
[4] = pre-emergence, 480 h, Rate 250 g/ha, pre-emergence, assessed visually 20 DAA, 100%=total damage, 0%=no damage, read-out: Pre-emergence herbicidal activity (percentage phytotoxicity) ALOMY PRE
[5] = post-emergence, 360 h, Rate 250 g/ha, post-emergence, assessed visually 15 DAA, 100%=total damage, 0%=no damage, read-out: Post-emergence herbicidal activity (percentage phytotoxicity) AVEFA POST
[6] = pre-emergence, 480 h, Rate 250 g/ha, pre-emergence, assessed visually 20 DAA, 100%=total damage, 0%=no damage, read-out: Pre-emergence herbicidal activity (percentage phytotoxicity) AVEFA PRE
[7] = post-emergence, 360 h, Rate 250 g/ha, post-emergence, assessed visually 15 DAA, 100%=total damage, 0%=no damage, read-out: Post-emergence herbicidal activity (percentage phytotoxicity) ECHCG POST
[8] = pre-emergence, 480 h, Rate 250 g/ha, pre-emergence, assessed visually 20 DAA, 100%=total damage, 0%=no damage, read-out: Pre-emergence herbicidal activity (percentage phytotoxicity) ECHCG PRE
[9] = post-emergence, 360 h, Rate 250 g/ha, post-emergence, assessed visually 15 DAA, 100%=total damage, 0%=no damage, read-out: Post-emergence herbicidal activity (percentage phytotoxicity) LOLPE POST
[10] = pre-emergence, 480 h, Rate 250 g/ha, pre-emergence, assessed visually 20 DAA, 100%=total damage, 0%=no damage, read-out: Pre-emergence herbicidal activity (percentage phytotoxicity) LOLPE PRE
[11] = post-emergence, 360 h, POST-emergence, rate 250 g/ha, visual score 15 DAA (100%=total damage, 0%=no damage), read-out: Post-emergence herbicidal activity (percentage phytotoxicity) ALOMY POST
[12] = pre-emergence, 480 h, PRE-emergence, rate 250 g/ha, visual score 20 DAA (100%=total damage, 0%=no damage), read-out: Pre-emergence herbicidal activity (percentage phytotoxicity) ALOMY PRE
[13] = post-emergence, 360 h, POST-emergence, rate 250 g/ha, visual score 15 DAA (100%=total damage, 0%=no damage), read-out: Post-emergence herbicidal activity (percentage phytotoxicity) AVEFA POST
[14] = pre-emergence, 480 h, PRE-emergence, rate 250 g/ha, visual score 20 DAA (100%=total damage, 0%=no damage), read-out: Pre-emergence herbicidal activity (percentage phytotoxicity) AVEFA PRE
[15] = post-emergence, 360 h, POST-emergence, rate 250 g/ha, visual score 15 DAA (100%=total damage, 0%=no damage), read-out: Post-emergence herbicidal activity (percentage phytotoxicity) ECHCG POST
[16] = pre-emergence, 480 h, PRE-emergence, rate 250 g/ha, visual score 20 DAA (100%=total damage, 0%=no damage), read-out: Pre-emergence herbicidal activity (percentage phytotoxicity) ECHCG PRE
[17] = post-emergence, 360 h, POST-emergence, rate 250 g/ha, visual score 15 DAA (100%=total damage, 0%=no damage), read-out: Post-emergence herbicidal activity (percentage phytotoxicity) LOLPE POST
[18] = pre-emergence, 480 h, PRE-emergence, rate 250 g/ha, visual score 20 DAA (100%=total damage, 0%=no damage), read-out: Pre-emergence herbicidal activity (percentage phytotoxicity) LOLPE PRE
[19] = post-emergence, 360 h, Rate 250 g/ha, post-emergence, visual assessment 15 DAA, 100%=total damage, 0%=no damage, read-out: Post-emergence herbicidal activity (percentage phytotoxicity) ALOMY POST
[20] = pre-emergence, 480 h, Rate 250 g/ha, pre-emergence, visual assessment 20 DAA, 100%=total damage, 0%=no damage, read-out: Pre-emergence herbicidal activity (percentage phytotoxicity) ALOMY PRE
[21] = post-emergence, 360 h, Rate 250 g/ha, post-emergence, visual assessment 15 DAA, 100%=total damage, 0%=no damage, read-out: Post-emergence herbicidal activity (percentage phytotoxicity) AVEFA POST
[22] = pre-emergence, 480 h, Rate 250 g/ha, pre-emergence, visual assessment 20 DAA, 100%=total damage, 0%=no damage, read-out: Pre-emergence herbicidal activity (percentage phytotoxicity) AVEFA PRE
[23] = post-emergence, 360 h, Rate 250 g/ha, post-emergence, visual assessment 15 DAA, 100%=total damage, 0%=no damage, read-out: Post-emergence herbicidal activity (percentage phytotoxicity) ECHCG POST
[24] = pre-emergence, 480 h, Rate 250 g/ha, pre-emergence, visual assessment 20 DAA, 100%=total damage, 0%=no damage, read-out: Pre-emergence herbicidal activity (percentage phytotoxicity) ECHCG PRE
[25] = post-emergence, 360 h, Rate 250 g/ha, post-emergence, visual assessment 15 DAA, 100%=total damage, 0%=no damage, read-out: Post-emergence herbicidal activity (percentage phytotoxicity) LOLPE POST
[26] = pre-emergence, 480 h, Rate 250 g/ha, pre-emergence, visual assessment 20 DAA, 100%=total damage, 0%=no damage, read-out: Pre-emergence herbicidal activity (percentage phytotoxicity) LOLPE PRE

Row | SMILES | pest or weed control at 250 g/ha [1, 3] [%] | pest or weed control at 250 g/ha [1, 4] [%] | pest or weed control at 250 g/ha (Avena fatua (AVEFA); [5]) [%] | pest or weed control at 250 g/ha (Avena fatua (AVEFA); [6]) [%] | pest or weed control at 250 g/ha [2, 7] [%] | pest or weed control at 250 g/ha [2, 8] [%] | pest or weed control at 250 g/ha (Lolium perenne (LOLPE); [9]) [%] | pest or weed control at 250 g/ha (Lolium perenne (LOLPE); [10]) [%] | pest or weed control at 250 g/ha [1, 11] [%] | pest or weed control at 250 g/ha [1, 12] [%] | pest or weed control at 250 g/ha (Avena fatua (AVEFA); [13]) [%] | pest or weed control at 250 g/ha (Avena fatua (AVEFA); [14]) [%] | pest or weed control at 250 g/ha [2, 15] [%] | pest or weed control at 250 g/ha [2, 16] [%] | pest or weed control at 250 g/ha (Lolium perenne (LOLPE); [17]) [%] | pest or weed control at 250 g/ha (Lolium perenne (LOLPE); [18]) [%] | also measured
1 | Cc1cc(C)c(C2C(=O)CC(CC(=O)NCC3CSC3)C2=O)c(C)c1 (stereo not drawn) [Compound A174] |  |  |  |  |  |  |  |  |  |  |  |  |  |  |  |  | pest or weed control at 250 g/ha ([1]; post-emergence, 360 h, post-emergence, 250 g/ha, 15 DAA, visual score (100%=total damage; 0%=no damage), read-out: ALOMY POST herbicidal activity (percentage phytotoxicity)): 40%; pest or weed control at 250 g/ha (Avena fatua (AVEFA); post-emergence, 360 h, post-emergence, 250 g/ha, 15 DAA, visual score (100%=total damage; 0%=no damage), read-out: AVEFA POST herbicidal activity (percentage phytotoxicity)): 0%; pest or weed control at 250 g/ha ([2]; post-emergence, 360 h, post-emergence, 250 g/ha, 15 DAA, visual score (100%=total damage; 0%=no damage), read-out: ECHCG POST herbicidal activity (percentage phytotoxicity)): 10%; pest or weed control at 250 g/ha (Lolium perenne (LOLPE); post-emergence, 360 h, post-emergence, 250 g/ha, 15 DAA, visual score (100%=total damage; 0%=no damage), read-out: LOLPE POST herbicidal activity (percentage phytotoxicity)): 0%
2 | CC#Cc1cc(C)c(C2C(=O)CC(CC(=O)NC3CCC3)C2=O)c(C)c1 (stereo not drawn) [Compound A81] | 90 | 100 | 100 | 100 | 100 | 100 | 90 | 100 |  |  |  |  |  |  |  |  | 
3 | Cc1cc(OCC(F)(F)F)cc(C)c1C1C(=O)CC(CC(=O)NCc2cccc(F)c2)C1=O (stereo not drawn) [Compound B205] |  |  |  |  |  |  |  |  | 100 | 100 | 90 | 80 | 90 | 90 | 90 | 90 | 
4 | C#Cc1cc(C)c(C2C(=O)CC(CC(=O)NC(C)CC)C2=O)c(C)c1 (stereo not drawn) [Compound A9, 2-[3-(4-ethynyl-2,6-dimethyl-phenyl)-2,4-dioxo-cyclopentyl]-N-sec-butyl-acetamide] | 80 | 90 | 100 | 90 | 90 | 100 | 80 | 90 |  |  |  |  |  |  |  |  | 
5 | Cc1cc(-c2ccc(Br)cn2)cc(C)c1C1C(=O)CC(CC(=O)NC(C)C)C1=O (stereo not drawn) [Compound B296] |  |  |  |  |  |  |  |  | 100 | 90 | 100 | 90 | 100 | 100 | 100 | 90 | 
6 | Cc1cc(-c2ncc(Cl)cc2Cl)cc(C)c1C1C(=O)CC(CC(=O)NCc2cccc(Cl)c2)C1=O (stereo not drawn) [Compound A135] | 90 | 20 | 100 | 30 | 100 | 60 | 90 | 70 |  |  |  |  |  |  |  |  | 
7 | C#CCN(C)C(=O)CC1CC(=O)C(c2c(C)cc(OCC(F)(F)F)cc2C)C1=O (stereo not drawn) [Compound B213] |  |  |  |  |  |  |  |  | 90 | 80 | 90 | 50 | 100 | 90 | 90 | 70 | 
8 | Cc1cc(C)c(C2C(=O)CC(CC(=O)N3CCCC3)C2=O)c(C)c1 (stereo not drawn) [Compound A162] | 90 | 70 | 90 | 70 | 90 | 100 | 100 | 100 |  |  |  |  |  |  |  |  | 
9 | C/C=C/c1cc(C)c(C2C(=O)CC(CC(=O)N3CCOCC3)C2=O)c(C)c1 (stereo not drawn) [Compound B172] |  |  |  |  |  |  |  |  | 90 | 80 | 90 | 80 | 100 | 100 | 90 | 100 | 
10 | C#CCN(C)C(=O)CC1CC(=O)C(c2c(C)cc(-c3ncc(Cl)cn3)cc2C)C1=O (stereo not drawn) [Compound B349] |  |  |  |  |  |  |  |  |  |  |  |  |  |  |  |  | pest or weed control at 250 g/ha [1, 19]: 100%; pest or weed control at 250 g/ha [1, 20]: 100%; pest or weed control at 250 g/ha (Avena fatua (AVEFA); [21]): 100%; pest or weed control at 250 g/ha (Avena fatua (AVEFA); [22]): 90%; pest or weed control at 250 g/ha [2, 23]: 100%; pest or weed control at 250 g/ha [2, 24]: 90%; pest or weed control at 250 g/ha (Lolium perenne (LOLPE); [25]): 100%; pest or weed control at 250 g/ha (Lolium perenne (LOLPE); [26]): 90%
11 | C#CCNC(=O)CC1CC(=O)C(c2c(C)cc(-n3cc(Cl)cn3)cc2C)C1=O (stereo not drawn) [Compound B317] |  |  |  |  |  |  |  |  | 100 | 90 | 100 | 90 | 100 | 100 | 90 | 90 | 
12 | COc1ccc(CNC(=O)CC2CC(=O)C(c3c(C)cc(-c4ncc(Cl)cn4)cc3C)C2=O)cc1 (stereo not drawn) [Compound B356] |  |  |  |  |  |  |  |  |  |  |  |  |  |  |  |  | pest or weed control at 250 g/ha [1, 19]: 90%; pest or weed control at 250 g/ha [1, 20]: 60%; pest or weed control at 250 g/ha (Avena fatua (AVEFA); [21]): 100%; pest or weed control at 250 g/ha (Avena fatua (AVEFA); [22]): 60%; pest or weed control at 250 g/ha [2, 23]: 100%; pest or weed control at 250 g/ha [2, 24]: 100%; pest or weed control at 250 g/ha (Lolium perenne (LOLPE); [25]): 100%; pest or weed control at 250 g/ha (Lolium perenne (LOLPE); [26]): 80%
13 | Cc1cc(-c2ccc(Cl)nn2)cc(C)c1C1C(=O)CC(CC(=O)NCc2ncccc2Cl)C1=O (stereo not drawn) [Compound A155] | 50 | 40 | 70 | 100 | 90 | 70 | 70 | 70 |  |  |  |  |  |  |  |  | 
14 | C=C(C)CNC(=O)CC1CC(=O)C(c2c(C)cc(-c3ncc(C#N)cn3)cc2C)C1=O (stereo not drawn) [Compound B287] |  |  |  |  |  |  |  |  | 90 | 90 | 100 | 90 | 100 | 100 | 90 | 90 | 
